What was measured:
[1] = biological target: T1, Amine oxidase [flavin-containing] A (Homo sapiens, UniProt P21397); assay: Inhibition of MAOA expressed in BTI insect cells at 100 uM
T1 sequence (P21397 whole entry): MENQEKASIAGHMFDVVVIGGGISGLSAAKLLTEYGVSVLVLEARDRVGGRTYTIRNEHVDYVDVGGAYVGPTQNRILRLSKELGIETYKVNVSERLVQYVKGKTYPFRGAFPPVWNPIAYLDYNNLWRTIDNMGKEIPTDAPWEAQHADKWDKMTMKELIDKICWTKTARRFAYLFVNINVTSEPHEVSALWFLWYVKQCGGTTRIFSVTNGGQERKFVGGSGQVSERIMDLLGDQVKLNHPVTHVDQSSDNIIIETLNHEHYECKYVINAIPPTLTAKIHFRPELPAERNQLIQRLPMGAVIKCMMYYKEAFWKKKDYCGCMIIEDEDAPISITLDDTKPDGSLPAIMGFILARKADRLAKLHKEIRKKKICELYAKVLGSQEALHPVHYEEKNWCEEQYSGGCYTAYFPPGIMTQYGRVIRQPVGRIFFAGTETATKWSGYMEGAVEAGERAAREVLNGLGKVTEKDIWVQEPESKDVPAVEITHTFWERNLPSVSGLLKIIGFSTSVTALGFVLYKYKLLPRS

[2] = biological target: T2, Amine oxidase [flavin-containing] B (Homo sapiens, UniProt P27338); assay: Inhibition of human MAOB expressed in BTI insect cells; assay type: cell-based
T2 sequence (P27338 whole entry): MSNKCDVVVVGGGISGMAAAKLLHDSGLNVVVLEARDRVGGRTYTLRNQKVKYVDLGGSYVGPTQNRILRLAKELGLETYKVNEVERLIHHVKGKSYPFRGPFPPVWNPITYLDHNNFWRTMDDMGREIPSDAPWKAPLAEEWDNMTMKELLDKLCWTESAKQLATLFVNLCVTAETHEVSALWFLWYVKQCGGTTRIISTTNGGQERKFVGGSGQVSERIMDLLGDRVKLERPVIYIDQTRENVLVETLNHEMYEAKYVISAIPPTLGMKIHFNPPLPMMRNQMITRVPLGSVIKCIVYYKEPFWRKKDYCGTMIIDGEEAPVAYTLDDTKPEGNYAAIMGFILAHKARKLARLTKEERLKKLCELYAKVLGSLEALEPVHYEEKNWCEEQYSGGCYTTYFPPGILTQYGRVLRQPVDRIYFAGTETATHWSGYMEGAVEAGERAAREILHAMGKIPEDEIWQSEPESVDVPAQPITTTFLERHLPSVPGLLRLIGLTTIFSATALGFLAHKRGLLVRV

[3] = species: Homo sapiens; assay: Selectivity ratio of IC50 for human MAOA to IC50 for human MAOB
[4] = biological target: T1, Amine oxidase [flavin-containing] A; assay: Inhibition of human MAOA expressed in BTI insect cells

Compound | IC50 [1] | IC50 [2] [nM] | Ratio IC50 [3] | IC50 [4] [nM]
COc1ccc(-c2cc3cc(C)cc(Br)c3oc2=O)cc1 | Not Active | 3.23 | > 31000 | 
COc1cc(-c2cc3cc(C)cc(Br)c3oc2=O)cc(OC)c1OC |  | 4890 | 6.4 | 31200
COc1cc(OC)cc(-c2cc3cc(C)cc(Br)c3oc2=O)c1 | Not Active | 7.12 | > 14000 | 
Cc1cc(Br)c2oc(=O)c(-c3ccccc3)cc2c1 | Not Active | 11.1 | > 9050 | 
Cc1ccc2oc(=O)c(-c3ccccc3Br)cc2c1 | Not Active | 4300 | > 23 | 
